{"source": "ChEMBL document CHEMBL1201862", "about": "“PubChem BioAssay data set” (2004)", "note": "Active and inactive are the calls of the source.", "data": [{"molecular_target": "T1, Replicative DNA helicase DnaB (Mycobacterium tuberculosis, UniProt P9WMR3)", "T1 sequence (P9WMR3 whole entry)": "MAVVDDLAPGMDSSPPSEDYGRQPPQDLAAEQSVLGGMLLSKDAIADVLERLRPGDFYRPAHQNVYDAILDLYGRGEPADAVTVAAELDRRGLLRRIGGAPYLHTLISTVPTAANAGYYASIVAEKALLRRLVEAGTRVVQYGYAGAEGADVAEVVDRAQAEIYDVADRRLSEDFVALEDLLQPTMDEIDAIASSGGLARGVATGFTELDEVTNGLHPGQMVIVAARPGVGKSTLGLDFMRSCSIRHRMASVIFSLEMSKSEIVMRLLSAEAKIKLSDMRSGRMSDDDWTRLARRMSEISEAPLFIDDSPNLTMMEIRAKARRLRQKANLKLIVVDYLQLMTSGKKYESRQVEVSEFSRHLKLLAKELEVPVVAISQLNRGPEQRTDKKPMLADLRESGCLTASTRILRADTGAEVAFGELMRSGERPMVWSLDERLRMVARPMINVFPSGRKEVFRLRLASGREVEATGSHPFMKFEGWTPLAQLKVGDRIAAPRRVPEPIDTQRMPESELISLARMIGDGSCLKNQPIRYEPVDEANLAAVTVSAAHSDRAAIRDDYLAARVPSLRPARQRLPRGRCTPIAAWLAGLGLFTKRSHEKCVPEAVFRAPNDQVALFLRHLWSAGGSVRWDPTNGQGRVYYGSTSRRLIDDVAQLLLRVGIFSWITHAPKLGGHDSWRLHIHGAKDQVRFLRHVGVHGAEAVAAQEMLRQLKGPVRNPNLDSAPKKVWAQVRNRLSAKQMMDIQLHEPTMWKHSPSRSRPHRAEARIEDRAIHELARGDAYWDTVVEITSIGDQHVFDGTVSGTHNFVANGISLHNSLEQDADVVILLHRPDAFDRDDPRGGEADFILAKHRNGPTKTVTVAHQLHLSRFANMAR", "test": "DnaB intein splicing inhibitors, dose response, biochemical, cell-free fluorescence (AID 449749)", "type": "functional", "values": [{"smiles": "O=C1C(=O)c2ccccc2-c2ccccc21", "note": "[9,10-PHENANTHRENEQUINONE]", "AC50": "6.47 µM (active)"}, {"smiles": "CCc1ccc(OCC(=O)N/N=C2\\CC(=O)c3ccccc32)cc1", "AC50": "6.09 µM (active)"}, {"smiles": "CCC(=O)OCCNc1cc(Sc2nccn2C)c2nonc2c1[N+](=O)[O-]", "AC50": "2.9 µM (active)"}, {"smiles": "O=C1C=C(N(CCO)Cc2ccccc2)c2ccccc2C1=O", "AC50": "> 380 µM (inconclusive)"}, {"smiles": "O=C1c2cc(F)ccc2-n2c1nc1ccccc1c2=O", "AC50": "> 120 µM (inactive)"}, {"smiles": "CCOC(=O)C1=C(c2ccc(OC)cc2)C(=O)c2ccccc2C1=O", "AC50": "4.41 µM (active)"}]}, {"tested_on": "not listed separately", "test": "growth suppression of beta-catenin-knockout colon cells, dose response, cell-based, HCT116, human colon tumor (AID 1045);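 further: HCT116 colon tumor cells with beta catenin knocked out; cells exposed to compound for 60 hours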", "type": "functional", "values": [{"smiles": "CCc1ccc(OCC(=O)N/N=C2\\CC(=O)c3ccccc32)cc1", "EC50": "11.6 µM (active)"}, {"smiles": "CCC(=O)OCCNc1cc(Sc2nccn2C)c2nonc2c1[N+](=O)[O-]", "EC50": "3.98 µM (active)"}, {"smiles": "CCOC(=O)C1=C(c2ccc(OC)cc2)C(=O)c2ccccc2C1=O", "EC50": "2.33 µM (active)"}]}, {"molecular_target": "Heat shock protein HSP 90-alpha (Homo sapiens, UniProt P07900)", "test": "Luminescence-based dose response biochemical high throughput screening assay for inhibitors of the Heat Shock Protein 90 (HSP90). [Related pubchem assays: 1831 (Summary AID.), 1846 (Confirmation screen.), 1789 (Primary screen.)]", "values": [{"smiles": "CCCCn1c(NC(=O)c2ccccc2Cl)c(C#N)c2nc3ccccc3nc21", "IC50": "6.15 µM (active)"}, {"smiles": "O=C1c2cc(F)ccc2-n2c1nc1ccccc1c2=O", "IC50": "0.433 µM (active)"}, {"smiles": "CCOC(=O)C1=C(c2ccc(OC)cc2)C(=O)c2ccccc2C1=O", "IC50": "0.322 µM (active)"}]}, {"molecular_target": "T2, Protein RecA (Mycobacterium tuberculosis, UniProt P9WHJ3)", "T2 sequence (P9WHJ3 whole entry)": "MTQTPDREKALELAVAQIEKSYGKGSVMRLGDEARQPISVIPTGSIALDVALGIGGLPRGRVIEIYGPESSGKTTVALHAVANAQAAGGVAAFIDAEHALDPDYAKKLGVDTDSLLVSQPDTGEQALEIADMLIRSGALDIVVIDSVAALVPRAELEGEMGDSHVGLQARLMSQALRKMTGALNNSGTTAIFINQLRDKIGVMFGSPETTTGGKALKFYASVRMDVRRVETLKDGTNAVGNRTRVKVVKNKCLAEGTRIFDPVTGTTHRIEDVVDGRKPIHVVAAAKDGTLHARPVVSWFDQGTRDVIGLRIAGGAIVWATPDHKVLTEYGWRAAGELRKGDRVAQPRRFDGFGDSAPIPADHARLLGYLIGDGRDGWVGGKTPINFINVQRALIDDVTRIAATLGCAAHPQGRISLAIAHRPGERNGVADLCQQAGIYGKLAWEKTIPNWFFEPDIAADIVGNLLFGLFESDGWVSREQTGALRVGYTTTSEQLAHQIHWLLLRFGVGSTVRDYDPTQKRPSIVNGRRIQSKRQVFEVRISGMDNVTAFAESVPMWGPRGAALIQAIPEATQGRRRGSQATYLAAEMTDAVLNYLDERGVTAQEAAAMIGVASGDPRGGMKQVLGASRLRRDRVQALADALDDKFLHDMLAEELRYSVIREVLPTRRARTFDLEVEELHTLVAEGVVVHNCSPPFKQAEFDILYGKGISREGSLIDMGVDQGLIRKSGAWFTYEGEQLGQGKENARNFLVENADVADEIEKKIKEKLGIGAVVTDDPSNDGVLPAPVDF", "test": "Fluorescence Cell-Free Homogeneous Dose Retest to Identify Inhibitors of RecA-Intein Splicing Activity. [Related pubchem assays (depositor defined):AID2097, AID2223, AID489010, AID492950]", "type": "functional", "values": [{"smiles": "O=C1C(=O)c2ccccc2-c2ccccc21", "note": "[9,10-PHENANTHRENEQUINONE]", "EC50": "7.45 µM (active)"}, {"smiles": "COCCCNC(=O)c1ccc2c3c(onc13)-c1ccccc1C2=O", "EC50": "13 µM (active)"}, {"smiles": "CCc1ccc(OCC(=O)N/N=C2\\CC(=O)c3ccccc32)cc1", "EC50": "1.24 µM (active)"}, {"smiles": "CCC(=O)OCCNc1cc(Sc2nccn2C)c2nonc2c1[N+](=O)[O-]", "EC50": "1.37 µM (active)"}, {"smiles": "O=C1C=C(N(CCO)Cc2ccccc2)c2ccccc2C1=O", "EC50": "0.402 µM (active)"}, {"smiles": "O=C1c2cc(F)ccc2-n2c1nc1ccccc1c2=O", "EC50": "> 380 µM (inactive)"}, {"smiles": "CCOC(=O)C1=C(c2ccc(OC)cc2)C(=O)c2ccccc2C1=O", "EC50": "1.83 µM (active)"}]}]}
